# Biological target: T1, SIRT7 protein (Homo sapiens, UniProt Q9NRC8)
# T1 construct: purchased SignalChem S41-30H
# T1 sequence (Q9NRC8 1-400): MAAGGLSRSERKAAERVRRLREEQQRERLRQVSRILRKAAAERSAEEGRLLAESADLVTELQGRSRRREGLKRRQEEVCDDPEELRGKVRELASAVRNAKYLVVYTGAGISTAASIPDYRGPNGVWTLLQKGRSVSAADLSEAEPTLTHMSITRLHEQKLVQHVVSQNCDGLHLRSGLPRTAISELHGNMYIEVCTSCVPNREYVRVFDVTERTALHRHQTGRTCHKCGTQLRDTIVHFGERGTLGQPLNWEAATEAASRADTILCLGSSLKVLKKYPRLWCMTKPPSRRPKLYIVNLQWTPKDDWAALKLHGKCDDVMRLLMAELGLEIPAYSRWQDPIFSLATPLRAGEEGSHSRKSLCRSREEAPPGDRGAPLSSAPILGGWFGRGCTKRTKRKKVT
# Assay: SIRT Glo assay, inhibitory activity against Sirt7
# Type: biochemical
# Conditions: 10 μM compound
# Procedure: Promega's Cat. No. 6450 SIRT Glo assay kit was used, and as the target SIRT7 protein, No. S41-30H protein of SignalChem's Cat. was used. Prepare the compound by diluting it in SIRT Glo buffer in advance to a concentration twice as thick as the final concentration. For the positive control group of white 384 well plate (Greiner Bioone, white, small volume, Cat. No. 874075), and for compound group, dilute sirt7 protein in SIRT Glo buffer and dispense by 5 μL to contain 20 ng per well. In the background control group, 10 μL of SIRT Glo buffer is dispensed.
# After adding 5 μL of SIRT Glo buffer to the positive control group, and 5 μL of the diluted compound to the compound group, react for 30 minutes. After making the substrate provided in the SIRT Glo assay, adding 10 μL each, and reacting for 1 hour, the luciferase activity is measured with a microplate reader (Molecular Device, spectramax i3).
# Subtract the luciferase level of the background control group in all wells. The % inhibition of the compound was used to obtain the compound's rate of inhibitory activity against sirt7 in the following:
# % inhibition=100−(compound group/positive control group)×100.
row,Compound,inhibition at 10 µM
1,"CC(C)(C)OC(=O)N1CCC(=Cc2ccc(C(=O)Nc3nc4ccccc4s3)cc2Cl)CC1 [Compound 1-95, tert-butyl 4-(4-(benzo[d]thiazol-2-ylcarbamoyl)-2-chlorobenzylidene)piperidine-1-carboxylate]",34%
2,"CCS(=O)(=O)N1CCN(Cc2ccc(C(=O)Nc3nc4ccccc4s3)cc2)CC1 [Compound 1-32, N-(benzo[d]thiazol-2-yl)-4-((4-(ethylsulfonyl)piperazin-1-yl)methyl)benzamide]",34%
3,"O=C(Nc1nc2ccccc2s1)c1ccc(CN2CCN(C(=O)Nc3ccccc3Br)CC2)cc1 [Compound 1-58, 4-(4-(benzo[d]thiazol-2-ylcarbamoyl)benzyl)-N-(2-bromophenyl)piperazine-1-carboxamide]",87%
4,"CCCCOC(=O)CNC(=O)N1CCN(Cc2ccc(C(=O)Nc3nc4ccccc4s3)cc2)CC1 [Compound 1-48, butyl-(4-(4-(benzo[d]thiazol-2-ylcarbamoyl)benzyl)piperazine-1-carbonyl)glycinate]",54%
5,"O=C(Nc1nc2ccccc2s1)c1ccc(C=C2CCN(C(=O)Nc3ccc(F)cc3)CC2)cc1Cl [Compound 1-108, 4-(4-(benzo[d]thiazol-2-ylcarbamoyl)-3-chlorobenzylidene)-N-(4-fluorophenyl)piperidine-1-carboxamide]",100%
6,"CCNC(=O)N1CCC(=Cc2ccc(C(=O)Nc3nc4ccccc4s3)cc2)CC1 [Compound 1-67, 4-(4-(benzo[d]thiazol-2-ylcarbamoyl)benzylidene)-N-ethylpiperidine-1-carboxamide]",92%
7,"CCc1cnc(Oc2ccc(C(=O)Nc3nc4ccccc4s3)cc2)nc1 [Compound 1-19, N-(benzo[d]thiazol-2-yl)-4-((5-ethylpyrimidin-2-yl)oxy)benzamide]",13%
8,"CC(C)NC(=O)N1CCN(Cc2ccc(C(=O)Nc3nc4ccccc4s3)cc2)CC1 [Compound 1-40, 4-(4-(benzo[d]thiazol-2-ylcarbamoyl)benzyl)-N-isopropylpiperazine-1-carboxamide]",87%
9,"CCS(=O)(=O)N1CCC(=Cc2ccc(C(=O)Nc3nc4ccccc4s3)c(F)c2)CC1 [Compound 1-91, N-(benzo[d]thiazol-2-yl)-4-((1-(ethylsulfonyl)piperidin-4-ylidene)methyl)-2-fluorobenzamide]",76%
10,"O=C(Nc1nc2ccccc2[nH]1)c1ccc(OCc2ccc(C(F)(F)F)cc2)cc1 [Compound 1-13, N-(1H-benzo[d]imidazol-2-yl)-4-((4-(trifluoromethyl)benzyl)oxy)benzamide]",21%
11,"c1ccc2sc(N3CCC4(CC3)OCCO4)nc2c1 [Compound 1-23, 8-(benzo[d]thiazol-2-yl)-1,4-dioxa-8-azaspiro[4.5]decane]",78%
12,"Cc1ccc(Oc2cccc(C(=O)Nc3nc4ccccc4s3)c2)nn1 [Compound 1-17, N-(benzo[d]thiazol-2-yl)-3-((6-methylpyridazin-3-yl)oxy)benzamide]",88%
13,"Cc1ccc(Oc2ccc(C(=O)Nc3nc4cc(F)c(F)cc4[nH]3)cc2)nn1 [Compound 1-7, N-(5,6-difluoro-1H-benzo[d]imidazol-2-yl)-4-((6-methylpyridazin-3-yl)oxy)benzamide]",5%
14,"CCNC(=O)N1CCC(Cc2ccc(C(=O)Nc3nc4ccccc4s3)cc2)CC1 [Compound 1-69, 4-(4-(benzo[d]thiazol-2-ylcarbamoyl)benzyl)-N-ethylpiperidine-1-carboxamide]",100%
15,"CC(C)(C)OC(=O)N1CCN(Cc2ccc(C(=O)Nc3nc4ccccc4s3)cc2)CC1 [Compound 1-26, Tert-Butyl 4-(4-(benzo[d]thiazol-2-ylcarbamoyl)benzyl)piperazine-1-carboxylate]",40%
16,"CCCNC(=O)N1CCN(Cc2ccc(C(=O)Nc3nc4ccccc4s3)cc2)CC1 [Compound 1-55, 4-(4-(benzo[d]thiazol-2-ylcarbamoyl)benzyl)-N-propylpiperazine-1-carboxamide]",100%
17,"CCOc1ccccc1NC(=O)N1CCN(Cc2ccc(C(=O)Nc3nc4ccccc4s3)cc2)CC1 [Compound 1-56, 4-(4-(benzo[d]thiazol-2-ylcarbamoyl)benzyl)-N-(2-ethoxyphenyl)piperazine-1-carboxamide]",87%
18,"Cc1ccc(Oc2cccc(C(=O)Nc3nc4ccccc4[nH]3)c2)nn1 [Compound 1-5, N-(1H-benzo[d]imidazol-2-yl)-3-((6-methylpyridazin-3-yl)oxy)benzamide]",65%
19,"O=C(Nc1nc2ccccc2s1)c1ccc(CN2CCN(C(=O)Nc3ccccc3C(F)(F)F)CC2)cc1 [Compound 1-43, 4-(4-(benzo[d]thiazol-2-ylcarbamoyl)benzyl)-N-(2-(trifluoromethyl)phenyl)piperazine-1-carboxamide]",79%
20,"O=C(Nc1nc2ccccc2s1)c1ccc(CC2CCN(C(=O)Nc3ccccc3)CC2)cc1C(F)(F)F [Compound 1-85, 4-(4-(benzo[d]thiazol-2-ylcarbamoyl)-3-(trifluoromethyl)benzyl)-N-phenylpiperidine-1-carboxamide]",28%
21,"CC(C)(C)OC(=O)N1CCN(Cc2ccc(C(=O)Nc3nc4ccccc4[nH]3)cc2)CC1 [Compound 1-1, Tert-Butyl 4-(4-((1H-benzo[d]imidazol-2-yl)carbamoyl)benzyl)piperazine-1-carboxylate]",12%
22,"O=C(Nc1nc2ccccc2s1)c1ccc(CN2CCN(C(=O)Nc3ccccc3F)CC2)cc1 [Compound 1-45, 4-(4-(benzo[d]thiazol-2-ylcarbamoyl)benzyl)-N-(2-fluorophenyl)piperazine-1-carboxamide]",96%
23,"O=C(Nc1nc2ccccc2s1)c1c(F)cc(C=C2CCNCC2)cc1F [Compound 1-99, N-(benzo[d]thiazol-2-yl)-2,6-difluoro-4-(piperidin-4-ylidenemethyl)benzamide]",63%
24,"Cc1ccc(Oc2ccc(C(=O)Nc3nc4cccnc4s3)cc2)nn1 [Compound 1-16, 4-((6-methylpyridazin-3-yl)oxy)-N-(thiazolo[5,4-b]pyridin-2-yl)benzamide]",87%
25,"O=C(Nc1nc2ccccc2s1)c1ccc(CN2CCN(C(=O)Nc3ccc(F)cc3)CC2)cc1 [Compound 1-44, 4-(4-(benzo[d]thiazol-2-ylcarbamoyl)benzyl)-N-(4-fluorophenyl)piperazine-1-carboxamide]",95%
26,"O=C(Nc1nc2ccccc2n1Cc1ccc(C(F)(F)F)cc1)c1ccc(OCc2ccc(C(F)(F)F)cc2)cc1 [Compound 1-14, N-(1-(4-(trifluoromethyl)benzyl)-1H-benzo[d]imidazol-2-yl)-4-((4-(trifluoromethyl)benzyl)oxy)benzamide]",15%
27,"O=C(Nc1nc2ccccc2s1)c1ccc(CN2CCN(C(=O)Nc3ccc(C(F)(F)F)cc3)CC2)cc1 [Compound 1-39, 4-(4-(benzo[d]thiazol-2-ylcarbamoyl)benzyl)-N-(4-(trifluoromethyl)phenyl)piperazine-1-carboxamide]",87%
28,"O=C(Nc1nc2ccccc2s1)c1ccc(CN2CCN(C(=O)Nc3ccccc3)CC2)cc1 [Compound 1-38, 4-(4-(benzo[d]thiazol-2-ylcarbamoyl)benzyl)-N-phenylpiperazine-1-carboxamide]",98%

# From patent publication US20240116897A1, “BENZOTHIAZOLE AND BENZIMIDAZOLE DERIVATIVES, PHARMACEUTICALLY ACCEPTABLE SALT THEREOF, PREPARATION METHOD THEREFOR, AND PHARMACEUTICAL COMPOSITION COMPRISING SAME AS ACTIVE INGREDIENT” (KOREA RESEARCH INSTITUTE OF CHEMICAL TECHNOLOGY, priority 2021, published 2024)
